# Data: US20200370087A1, “METHOD FOR DETERMINING MICROBIAL SUSCEPTIBILITY TO ANTIBIOTIC AGENTS” (Ascilion AB, priority 2017, published 2020)
# Legend:
# [1] = test system: E. faecium; experiment: Qualitative glucose consumption test, directly from positive BC-bottles (Example 2, Table 7); type: cell-based; conditions: E. faecium from positive BC-bottle, antibiotic 256 μg/mL
# Description: With slightly lower microbe concentrations e.g. directly from positive BC-bottles (^˜10^9 CFU/ml) the results are shown at least within 2 hours, where E. coli ATCC 25922 is classified as susceptible and E. faecium is non-susceptible.
# [2] = test system: E. coli ATCC 25922; experiment: as above; type: cell-based; conditions: E. coli ATCC 25922 from positive BC-bottle, antibiotic 256 μg/mL
# [3] = test system: E. coli ATCC 25922; experiment: Qualitative glucose consumption test, bacteria from plated cultures (Example 2, Table 6); type: cell-based; conditions: E. coli ATCC 25922 from plated culture, antibiotic 256 μg/mL
# Description: (§1) If the susceptibility score is a qualitative susceptibility score classifying the microorganism as “susceptible”, or “non-susceptible” to an antibiotic agent the answer could be given in as little as 1 hour. Bacteria from plated cultures were suspended in cation adjusted Mueller-Hinton broth (SVA, Uppsala, Sweden) supplemented with glucose. Consequently, the concentration of microorgansims was typically two orders of magnitude higher as compared to Example 1. […] The tested microorganisms was one strain of E. faecium, two strains of E. coli and one S. aureus.
# [4] = test system: E. faecium; experiment: as above; type: cell-based; conditions: E. faecium from plated culture, antibiotic 256 μg/mL
# Description: as §1
# [5] = test system: E. coli 17; experiment: as above; type: cell-based; conditions: E. coli 17 from plated culture, antibiotic 256 μg/mL
# Description: as §1
# [6] = test system: S. aureus; experiment: as above; type: cell-based; conditions: S. aureus from plated culture, antibiotic 256 μg/mL
# Description: If the susceptibility score is a qualitative susceptibility score classifying the microorganism as “susceptible”, or “non-susceptible” to an antibiotic agent the answer could be given in as little as 1 hour.
# Bacteria from plated cultures were suspended in cation adjusted Mueller-Hinton broth (SVA, Uppsala, Sweden) supplemented with glucose. Consequently, the concentration of microorgansims was typically two orders of magnitude higher as compared to Example 1. […] The tested microorganisms was one strain of E. faecium, two strains of E. coli and one S. aureus.
# [7] = test system: Escherichia coli ATCC 25922; conditions: E.coli, cited from earlier work
# [8] = test system: Enterococcus faecalis ATCC 29212; conditions: E.faecalis, cited from earlier work
# [9] = test system: Enterococcus faecalis (ATCC 29212); experiment: Glucose consumption susceptibility test, blood culture diluted in MHB with glucose (Example 1); type: cell-based; parameters: glucose concentration, t = 0 / glucose concentration, t = 60 / glucose concentration, t = 120 / glucose concentration, t = 180 / glucose concentration, t = 240 / dC/dT (rate of change in glucose concentration): unit not given here; conditions: for F = the rate of change in glucose concentration in relation to the reference / dC/dT (rate of change in glucose concentration) / glucose concentration, t = 0 / glucose concentration, t = 60 / glucose concentration, t = 120 / glucose concentration, t = 180 / glucose concentration, t = 240: E. faecalis; for glucose concentration, t = 0: 0 minutes; for glucose concentration, t = 60: 60 minutes; for glucose concentration, t = 120: 120 minutes; for glucose concentration, t = 180: 180 minutes; for glucose concentration, t = 240: 240 minutes
# How it was run: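 Blood cultures grown to positivity were diluted 1:100 in cation-adjusted Mueller-Hinton broth with 1.0 mg/mL glucose. Glucose was read by glucometer at 0–240 min.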
# [10] = range obtained by EUCAST from ISO 20776-1: 2006
# [11] = reference value, Mueller-Hinton agar, incubation 18±2 h, N/A = not susceptible
substance,measurement,setting,value
gentamicin,"glucose concentration, t = 0",[1]; t = 0,144
same,"glucose concentration, t = 45",[1]; t = 45,105
same,"glucose concentration, t = 60",[1]; t = 60,77
same,"glucose concentration, t = 75",[1]; t = 75,47
same,qualitative susceptibility score,[1]; within 2 hours,non-susceptible
same,"glucose concentration, t = 0",[2]; t = 0,145
same,"glucose concentration, t = 45",[2]; t = 45,155
same,"glucose concentration, t = 60",[2]; t = 60,151
same,"glucose concentration, t = 90",[2]; t = 90,140
same,"glucose concentration, t = 105",[2]; t = 105,135
same,qualitative susceptibility score,[2]; within 2 hours,susceptible
same,qualitative susceptibility score,[3],susceptible
same,"glucose concentration, t = 15",[3]; t = 15,156
same,"glucose concentration, t = 30",[3]; t = 30,155
same,"glucose concentration, t = 45",[3]; t = 45,136
same,qualitative susceptibility score,[4],non-susceptible
same,"glucose concentration, t = 0",[4]; t = 0,79
same,"glucose concentration, t = 15",[4]; t = 15,47
same,qualitative susceptibility score,[5],susceptible
same,"glucose concentration, t = 15",[5]; t = 15,131
same,"glucose concentration, t = 30",[5]; t = 30,126
same,"glucose concentration, t = 45",[5]; t = 45,123
same,qualitative susceptibility score,[6],susceptible
same,"glucose concentration, t = 15",[6]; t = 15,137
same,"glucose concentration, t = 30",[6]; t = 30,139
same,"glucose concentration, t = 45",[6]; t = 45,131
same,"MIC, EUCAST, range in parentheses",[7]; [10],(0.25-1) ug/mL
same,"MIC, EUCAST",[7]; [11],0.5 µg/mL
same,"MIC, EUCAST, range in parentheses",[8]; [10],(4-16) ug/mL
same,"MIC, EUCAST",[8]; [11],8 µg/mL
same,F = the rate of change in glucose concentration in relation to the reference,[9]; antibiotic 0.25 μg/mL,144%
same,dC/dT (rate of change in glucose concentration),[9]; antibiotic 0.25 μg/mL,52
same,"glucose concentration, t = 0",[9]; antibiotic 0.25 μg/mL,142
same,"glucose concentration, t = 60",[9]; antibiotic 0.25 μg/mL,156
same,"glucose concentration, t = 120",[9]; antibiotic 0.25 μg/mL,143
same,"glucose concentration, t = 180",[9]; antibiotic 0.25 μg/mL,87
same,F = the rate of change in glucose concentration in relation to the reference,[9]; antibiotic 0.5 μg/mL,148%
same,dC/dT (rate of change in glucose concentration),[9]; antibiotic 0.5 μg/mL,53
same,"glucose concentration, t = 0",[9]; antibiotic 0.5 μg/mL,146
same,"glucose concentration, t = 60",[9]; antibiotic 0.5 μg/mL,160
same,"glucose concentration, t = 120",[9]; antibiotic 0.5 μg/mL,138
same,"glucose concentration, t = 180",[9]; antibiotic 0.5 μg/mL,97
same,F = the rate of change in glucose concentration in relation to the reference,[9]; antibiotic 1 μg/mL,106%
same,dC/dT (rate of change in glucose concentration),[9]; antibiotic 1 μg/mL,38
same,"glucose concentration, t = 0",[9]; antibiotic 1 μg/mL,145
same,"glucose concentration, t = 60",[9]; antibiotic 1 μg/mL,150
same,"glucose concentration, t = 120",[9]; antibiotic 1 μg/mL,138
same,"glucose concentration, t = 180",[9]; antibiotic 1 μg/mL,100
same,"glucose concentration, t = 240",[9]; antibiotic 1 μg/mL,36
same,F = the rate of change in glucose concentration in relation to the reference,[9]; antibiotic 2 μg/mL,75%
same,dC/dT (rate of change in glucose concentration),[9]; antibiotic 2 μg/mL,27
same,"glucose concentration, t = 0",[9]; antibiotic 2 μg/mL,147
same,"glucose concentration, t = 60",[9]; antibiotic 2 μg/mL,156
same,"glucose concentration, t = 120",[9]; antibiotic 2 μg/mL,143
same,"glucose concentration, t = 180",[9]; antibiotic 2 μg/mL,110
same,"glucose concentration, t = 240",[9]; antibiotic 2 μg/mL,75
same,F = the rate of change in glucose concentration in relation to the reference,[9]; antibiotic 4 μg/mL,46%
same,dC/dT (rate of change in glucose concentration),[9]; antibiotic 4 μg/mL,17
same,"glucose concentration, t = 0",[9]; antibiotic 4 μg/mL,147
same,"glucose concentration, t = 60",[9]; antibiotic 4 μg/mL,154
same,"glucose concentration, t = 120",[9]; antibiotic 4 μg/mL,151
same,"glucose concentration, t = 180",[9]; antibiotic 4 μg/mL,118
same,"glucose concentration, t = 240",[9]; antibiotic 4 μg/mL,104
same,F = the rate of change in glucose concentration in relation to the reference,[9]; antibiotic 8 μg/mL,14%
same,dC/dT (rate of change in glucose concentration),[9]; antibiotic 8 μg/mL,5
same,"glucose concentration, t = 0",[9]; antibiotic 8 μg/mL,143
same,"glucose concentration, t = 60",[9]; antibiotic 8 μg/mL,155
same,"glucose concentration, t = 120",[9]; antibiotic 8 μg/mL,134
same,"glucose concentration, t = 180",[9]; antibiotic 8 μg/mL,136
same,"glucose concentration, t = 240",[9]; antibiotic 8 μg/mL,140
same,F = the rate of change in glucose concentration in relation to the reference,[9]; antibiotic 16 μg/mL,18%
same,dC/dT (rate of change in glucose concentration),[9]; antibiotic 16 μg/mL,6
same,"glucose concentration, t = 0",[9]; antibiotic 16 μg/mL,147
same,"glucose concentration, t = 60",[9]; antibiotic 16 μg/mL,160
same,"glucose concentration, t = 120",[9]; antibiotic 16 μg/mL,152
same,"glucose concentration, t = 180",[9]; antibiotic 16 μg/mL,155
same,F = the rate of change in glucose concentration in relation to the reference,[9]; antibiotic 32 μg/mL,3%
same,dC/dT (rate of change in glucose concentration),[9]; antibiotic 32 μg/mL,1
same,"glucose concentration, t = 0",[9]; antibiotic 32 μg/mL,143
same,"glucose concentration, t = 60",[9]; antibiotic 32 μg/mL,151
same,"glucose concentration, t = 180",[9]; antibiotic 32 μg/mL,142
same,"glucose concentration, t = 240",[9]; antibiotic 32 μg/mL,148
same,"MIC, Measured","[9]; E.faecalis, 80% threshold of reference rate of change, 60 to 180 minutes, N/A = not susceptible, no MIC value can be calculated",2 µg/mL
